A word on the IC50: it is the point on the concentration scale where inhibition reaches its midpoint.

This is an account of results in paper PMC8036727, “In Vitro Anticancer Potential of Jasione montana and Its Main Components against Human Amelanotic Melanoma Cells” (International Journal of Molecular Sciences, 2021).

Values after ≈ are worked out from the molar mass of the structure shown. Structures can show the parent of a compound that is named as a salt.

For test [1], the system named is human amelanotic melanoma cell line C32 (CRL-1585). Briefly: Fixable viability stain (FVS520) cytotoxicity assay, flow cytometry. The note with it: C32 cells, 24 h, 10–300 μg/mL, mean ± SD. The test is classed as cell-based. How it is done:
(§1) The human amelanotic melanoma cell line C32 (CRL-1585) and a normal human fibroblast cell line (PCS-201-012) were cultured in DMEM. DMEM was blended with 10% FBS, 10 µg/mL streptomycin, and […] penicillin. The cells were cultured in 5% CO2 and fully humidified at 37 °C. All tested compounds were used at a final DMSO concentration of not more than 0.5% (v/v). Cells cultured in drug-free DMEM were used as controls, and cells with the addition of only DMSO were used as solvent-controls; VLB was used as a positive control. The JM4 fraction was analyzed at the following concentrations: 25, 50 and 100 µg/mL and compound 22 and VLB were analyzed at 25 µg/mL. For the cytotoxicity assay, all extracts and compounds were tested at the following concentrations: 10, 25, 50, 100, 200, and 300 µg/mL.
This analysis was performed to estimate the level of viable cells after treatment with JM1–JM6, compounds 9, 12, 22 and VLB at concentrations ranging from 10 to 300 µg/mL. Cytotoxicity was evaluated by FVS520 via a flow cytometer (BD FACSCanto II flow cytometer, San Jose, CA, USA). In contrast to nonpermeable live cells, the permeable membranes of necrotic cells allow for the intracellular diffusion of FVS520 and the covalent binding of high concentrations of amines. Thus, necrotic cells contained a higher level of FVS520 and, consequently, increased fluorescence intensity than viable cells. After 24 h of incubation, C32 cells and fibroblasts were washed with PBS, trypsinized and resuspended in DMEM. The supernatant was removed, and 0.5 mL of Stain Buffer with the addition of 1 µL of FVS520 was added to each sample, which was vortexed immediately and kept for 10–15 min in the dark at room temperature. After incubation and the addition of 2 mL of PBS, the supernatant was removed, the cells were resuspended in 300 µL of PBS and then immediately subjected to analysis. The results were analyzed based on FACSDiva software (BD Biosciences Systems, San Jose, CA, USA). Based on the results of the cytotoxicity analysis, further research in this project focused on the determination of the full anticancer mechanism of the most promising fraction JM4 and compound 22.

The subject of test [2] is normal human fibroblast cell line (PCS-201-012). The description is as above. The test is classed as cell-based. The note with it: normal human fibroblasts, 24 h, 10–300 μg/mL. The method, then:
The human amelanotic melanoma cell line C32 (CRL-1585) and a normal human fibroblast cell line (PCS-201-012) were cultured in DMEM. […] Cells cultured in drug-free DMEM were used as controls, and cells with the addition of only DMSO were used as solvent-controls; VLB was used as a positive control. The JM4 fraction was analyzed at the following concentrations: 25, 50 and 100 µg/mL and compound 22 and VLB were analyzed at 25 µg/mL. For the cytotoxicity assay, all extracts and compounds were tested at the following concentrations: 10, 25, 50, 100, 200, and 300 µg/mL. […] Cytotoxicity was evaluated by FVS520 via a flow cytometer (BD FACSCanto II flow cytometer, San Jose, CA, USA). In contrast to nonpermeable live cells, the permeable membranes of necrotic cells allow for the intracellular diffusion of FVS520 and the covalent binding of high concentrations of amines. Thus, necrotic cells contained a higher level of FVS520 and, consequently, increased fluorescence intensity than viable cells. After 24 h of incubation, C32 cells and fibroblasts were washed with PBS, trypsinized and resuspended in DMEM. […] After incubation and the addition of 2 mL of PBS, the supernatant was removed, the cells were resuspended in 300 µL of PBS and then immediately subjected to analysis. The results were analyzed based on FACSDiva software (BD Biosciences Systems, San Jose, CA, USA). […]

Test [3] relates to caspase-9 in C32 melanoma cells. Briefly: FLICA Caspase-9 assay, flow cytometry. The test is classed as cell-based, human. Conditions: 25 μg/mL, 24 h. The method, then: (§2) The human amelanotic melanoma cell line C32 (CRL-1585) and a normal human fibroblast cell line (PCS-201-012) were cultured in DMEM. […] Cells cultured in drug-free DMEM were used as controls, and cells with the addition of only DMSO were used as solvent-controls; VLB was used as a positive control. The JM4 fraction was analyzed at the following concentrations: 25, 50 and 100 µg/mL and compound 22 and VLB were analyzed at 25 µg/mL. For the cytotoxicity assay, all extracts and compounds were tested at the following concentrations: 10, 25, 50, 100, 200, and 300 µg/mL. Determination of the caspase-3, caspase-8, caspase-9, and caspase-10 activity were carried out by the following kits: FLICA Caspase-3/7 Assay Kit, FLICA Caspase-8 Assay Kit, FLICA Caspase-9 Assay Kit, and FLICA Caspase-10 Assay Kit using a BD FACSCanto II flow cytometer. […] After 1 h, the cells were flushed with apoptosis wash buffer and resuspended in […] of the same reagent with […] PI. The procedure of determining the activity of each caspase was carried out analogously. The results were analyzed with FACSDiva software.
(In general: A flow cytometer gives signals particle by particle.)

In test [4] the test system is caspase-10 in C32 melanoma cells. Briefly: FLICA Caspase-10 assay, flow cytometry. The test is classed as cell-based, human. Conditions: 25 μg/mL, 24 h. How it is done: as §2
In test [5] the test system is C32 melanoma cells. Briefly: Cell cycle analysis by PI staining, flow cytometry. The note with it: 25 μg/mL, 24 h. The test is classed as cell-based, human. How it is done: The human amelanotic melanoma cell line C32 (CRL-1585) and a normal human fibroblast cell line (PCS-201-012) were cultured in DMEM. […] Cells cultured in drug-free DMEM were used as controls, and cells with the addition of only DMSO were used as solvent-controls; VLB was used as a positive control. The JM4 fraction was analyzed at the following concentrations: 25, 50 and 100 µg/mL and compound 22 and VLB were analyzed at 25 µg/mL. For the cytotoxicity assay, all extracts and compounds were tested at the following concentrations: 10, 25, 50, 100, 200, and 300 µg/mL. The allocation of cell cycle stage was analyzed on a FACSCanto II flow cytometer. C32 cells were cured with JM4, 22 and VLB for 24 h of incubation. Thereafter, the cells were harvested and adjusted with 1 mL of 70% EtOH and maintained at −20 °C for 24 h. Next, the cells were washed with PBS, treated with 50 µg/mL DNase-free RNase A solution for 5 min at room temperature, stained with 100 µg/mL PI for 30 min at 37 °C, and submitted to flow cytometry analysis. The results were analyzed with FACSDiva software.

In test [6] the test system is caspase-8 in C32 melanoma cells. Kind of test: FLICA Caspase-8 assay, flow cytometry. The test is classed as cell-based, human. Conditions: 25 μg/mL, 24 h. How it is done: as §2
For test [7], the system named is C32 melanoma cells. Briefly: Mitochondrial membrane potential (MMP), JC-1 MitoScreen, flow cytometry. In kind it is cell-based, human. Conditions: 25 μg/mL, 24 h; untreated control 5.2 ± 0.1%. How it is done:
The human amelanotic melanoma cell line C32 (CRL-1585) and a normal human fibroblast cell line (PCS-201-012) were cultured in DMEM. […] Cells cultured in drug-free DMEM were used as controls, and cells with the addition of only DMSO were used as solvent-controls; VLB was used as a positive control. The JM4 fraction was analyzed at the following concentrations: 25, 50 and 100 µg/mL and compound 22 and VLB were analyzed at 25 µg/mL. For the cytotoxicity assay, all extracts and compounds were tested at the following concentrations: 10, 25, 50, 100, 200, and 300 µg/mL. […] After incubation, the cells were flushed again, resuspended in PBS, and immediately subjected to BD FACSCanto II flow cytometry analysis. The results were analyzed using FACSDiva.

Test [8] relates to C32 melanoma cells. Kind of test: Annexin V-FITC/PI binding apoptosis assay, flow cytometry. In kind it is cell-based, human. The note with it: 25 μg/mL, 24 h; for apoptotic cells: untreated control 7.3 ± 1.3%.
Description: During programmed cell death, annexin V has a high affinity for phosphatidylserine (PS) when it is exposed to the extracellular environment. […] The assay allows differentiability between viable cells (annexin V–/PI–) and early (annexin V–/PI+) and late (annexin V+/PI+) apoptotic cells, as well as necrotic cells (annexin V–/PI+).
The human amelanotic melanoma cell line C32 (CRL-1585) and a normal human fibroblast cell line (PCS-201-012) were cultured in DMEM. DMEM was blended with 10% FBS, 10 µg/mL streptomycin, and 10 units/mol penicillin. The cells were cultured in 5% CO2 and fully humidified at 37 °C. All tested compounds were used at a final DMSO concentration of not more than 0.5% (v/v). Cells cultured in drug-free DMEM were used as controls, and cells with the addition of only DMSO were used as solvent-controls; VLB was used as a positive control.
Characterization of the mode of apoptosis induced by JM4, 22 and VLB was performed in C32 cells via flow cytometry using a FITC Annexin V Apoptosis Detection Kit II. All stages of programmed cell death could be identified by annexin V bound with high affinity to PS. PI is a standard flow cytometric viability explorer that stains cells that interfere with the cell membrane, and it can be used to distinguish necrotic cells from dead cells. After the C32 cells were incubated for 24 h with various concentrations of JM4, 22 and VLB, they were trypsinized and resuspended in binding buffer. After that, 5 µL of annexin V-FITC and 5 µL of PI were added and maintained for 15 min in the dark at room temperature. The results were analyzed using FACSDiva software.
Test [9] deals with caspase-3 in C32 melanoma cells. Briefly: FLICA Caspase-3/7 assay, flow cytometry. Conditions: 25 μg/mL, 24 h; untreated control 4.2 ± 1.3%. In kind it is cell-based, human. How it is done: as §1
Determination of the caspase-3, caspase-8, caspase-9, and caspase-10 activity were carried out by the following kits: FLICA Caspase-3/7 Assay Kit, FLICA Caspase-8 Assay Kit, FLICA Caspase-9 Assay Kit, and FLICA Caspase-10 Assay Kit using a BD FACSCanto II flow cytometer. C32 cells were incubated with JM4, compound 22 and VLB for 24 h, washed twice with PBS, resuspended in buffer supplemented with […] of FLICA reagent, and incubated. […] The results were analyzed with FACSDiva software.

For test [10], the system named is C32 melanoma cells. Kind of test: Autophagy Assay, Red, flow cytometry. In kind it is cell-based, human. The note with it: 25 μg/mL, 24 h. The method, then:
as §1
An autophagy assay was carried out to detect the impact of JM4, compound 22, and VLB on the autophagy process of C32 cells via flow cytometry using an Autophagy Assay, Red kit. The probe is a cell-permeable aliphatic molecule that brightly fluoresces after unjumbling […] and autolysosomes into lipid membranes. […] The results were analyzed with FACSDiva software.

On to `O=c1cc(-c2ccc(O)c(O)c2)oc2cc(OC3OC(CO)C(O)C(O)C3OC3OCC(O)C(O)C3O)cc(O)c12` [Compound 9, luteolin 7-O-β-D-xylosyl-(1-2)-β-D-glucoside], for which, in test [1], the IC50 is above 300 µg/mL.

Take `O=c1cc(-c2ccc(O)c(O)c2)oc2cc(OC3OC(CO)C(O)C(O)C3O)cc(O)c12` [Compound 12, luteolin 7-O-β-D-glucoside]: the IC50 in [1] is above 300 µg/mL.

On to `O=c1cc(-c2ccc(O)c(O)c2)oc2cc(O)cc(O)c12` [Compound 22, luteolin], for which the IC50 is 194 ± 4.4 µg/mL (≈ 678 µM) in test [2] and 95.1 ± 7.2 µg/mL (≈ 332 µM) in [1]. Further, in test [3], the “cells with active caspase-9” value turned out to be 16.6 ± 0.8%. The “cells with active caspase-10” value in test [4] was determined as 15.4 ± 0.7%. Also, the “percentage of C32 cells in G2/M phase” value in test [5] (untreated control 6.1 ± 0.6%) is 14.6 ± 1.5%. Moreover, the “percentage of C32 cells in G1 phase” value in test [5] (untreated control 73.0 ± 0.9%) was 35.3 ± 3.0%. In test [6], the “cells with active caspase-8” value is on record as 20.2 ± 1.5%. For the same compound, the “cells with a reduced MMP” value in test [7] amounted to 31.8 ± 0.7%. The apoptotic cells in [8] is 29.2 ± 3.0%.

Regarding `CC[C@]1(O)C[C@@H]2CN(CCc3c([nH]c4ccccc34)[C@@](C(=O)OC)(c3cc4c(cc3OC)N(C)[C@H]3[C@@](O)(C(=O)OC)[C@H](OC(C)=O)[C@]5(CC)C=CCN6CC[C@]43[C@@H]65)C2)C1` [VLB, vinblastine sulfate], the “cells with active caspase-3” value in [9] was determined as 23.4 ± 3.5%. In test [10] (untreated control 4.8 ± 0.8%), this compound had an autophagic cells of 76.7 ± 0.5%. Besides, the nonautophagic cells in [10] (untreated control 94.5 ± 1.0%) worked out at 22.4 ± 0.6%. In addition, the “cells with a reduced MMP” value in test [7] was found to be 34.1 ± 3.0%. In test [8], this compound gave a necrotic cells of 4.2 ± 1.0% and an apoptotic cells of 27.4 ± 1.0%. The half-inhibitory concentration (IC50) in [1] amounted to 148 ± 7.7 µg/mL.
